The subject of the experiment is papillary muscle of guinea-pig. Nature of the experiment: Myocardial contractility (developed tension) in isolated, electrically driven papillary muscle of guinea-pig. The settings on record: for change in developed tension: isolated guinea-pig papillary muscle, 1 Hz; for tension development (positive inotropic action) vs baseline: cumulative 10, 30 and 100 μM, n=5, FIG. 1. The procedure: [Test Example 1] Myocardial Contractility Enhancing Action of Pralmorelin in the Papillary Muscle of Guinea-Pig
The direct effect of pralmorelin on myocardial contractility was evaluated using the isolated cardiac muscle of guinea-pigs according to the standard method for evaluating myocardial contractility. • 1. Materials and Experimental Method • 1) Animal Used
Male Hartley guinea-pigs (body weight, 301-350 g; Japan SLC) were purchased. The animals were accommodated to an environment at a temperature of 23±2° C. and a humidity of 55±15% under 12-hr light/dark cycles while they were allowed to eat and drink water ad libitum until they weighed 360-480 g. Each test substance was tested on a group of five animals. • 2) Reagents Used
The test substances were pralmorelin dihydrochloride (KP-102), representatives of growth hormone secretagogues such as hexarelin, ghrelin and ibutamorelin methanesulfonate (the last being hereunder referred to as MK-0677) (which were prepared by the method described in JP 6-263737 A (kokai)), as well as a recombinant human growth hormone (Sumitomo Pharmaceutical) and amrinone (Sigma) which is a known therapeutic of acute heart failure. KP-102, hexarelin and MK-0677 were dissolved in distilled water. Ghrelin was dissolved in physiological saline. Amrinone was first dissolved in dimethyl sulfoxide and then diluted with physiological saline. The growth hormone was dissolved in a dedicated solubilizer (0.3 w/v % metacresol and 3.9 w/v % D-mannitol). None of the test substance solutions should be added in an amount exceeding 1 w/v %. All reagents other than the test substances were guaranteed products of Nacalai Tesque. • 3) Preparing Specimens of the Isolated Papillary Muscle
The guinea-pigs were stunned with a blow to the back of their head; thereafter, the carotid artery was incised and the animals were exsanguinated to death. The chest was opened, the blood vessels in the upper part of the heart were cut and the heart was removed. The heart was immediately transferred into a Krebs-Henseleit (K-H) nutrient solution (NaCl, 118.0 mM; KCl, 4.7 mM; CaCl2. 2H2O, 1.0 mM; KH2PO4, 1.2 mM; MgSO4.7H2O, 1.2 mM; NaHCO3, 25.0 mM; glucose, 11.0 mM) that had been fully aerated with 95% O2-5% CO2. The heart was fixed on a rubber-lined Petri dish with needles such that its front face was seen. The ventricular wall of the upper right ventricle (toward the atrium) was excised transversely along the atrium, then excised longitudinally along the interventricular septum so that the ventricular wall was opened to expose the right ventricular papillary muscle. Subsequently, the entire surface of the left ventricle was cut open from the aorta (down) to the apex and the anterior wall of the left ventricle was opened wide, to both right and left, and fixed to expose the papillary muscle of the left ventricle. The tricupsid or mitral valve was cut off from the ventricle and the papillary muscle was cut off at the base to prepare a specimen of papillary muscle. The base of the specimen was fixed to field stimulating electrodes in an organ bath filled with 15 mL of the nutrient solution. The tendinous cord adhering to the valve was tied up with a thread and connected to an FD pickup (TB-612T, Nihon Kohden). A resting tension of 0.5 g was loaded and the papillary muscle was driven with an electric stimulator (SEN-3201, Nihon Kohden) at a frequency of 1 Hz by pulses of 20-ms duration and at a voltage intensity about 1.2 times the threshold. After an equilibration period of about 1 hr, KP-102, hexarelin and amrinone were each applied cumulatively up to amounts of 10, 30 and 100 μM. After examination of the changes in inotropic action due to the application of the test substances, 12.5 mM of CaCl2 was added and the maximum tension that was developed by each specimen was obtained. […]

Where a SMILES comes first, the peptide text is derived from it. Where no end group is shown, it is not given here. [ ]: non-standard residue; d: D form. dTrp(2-Me) = Cc1[nH]c2ccccc2c1C[C@@H](N)C(=O)O

Turning to `CC(C)(N)C(=O)N[C@H](COCc1ccccc1)C(=O)N1CCC2(CC1)CN(S(C)(=O)=O)c1ccccc12` [MK-0677, ibutamorelin methanesulfonate], where the note is “100 μM”, the “change in developed tension” value was “no changes in the developed tension”.
As for `Nc1cc(-c2ccncc2)c[nH]c1=O` [amrinone], the “tension development (positive inotropic action) vs baseline” value was “increased in a concentration-dependent manner”.
Same read-out and setting: the entry for `Cc1[nH]c2ccccc2c1C[C@@H](NC(=O)[C@@H](N)Cc1cnc[nH]1)C(=O)N[C@@H](C)C(=O)N[C@@H](Cc1c[nH]c2ccccc12)C(=O)N[C@H](Cc1ccccc1)C(=O)N[C@@H](CCCCN)C(N)=O` [hexarelin] (H-H[dTrp(2-Me)]AW[dF]K-NH2) is “very weak and by no means significant over the baseline value”.
As to “ghrelin (GSSFLSPEHQRVQQRKESKKPPAKLQPR; ends and bridges not checked; UniProt Q9UBU3 24-51, looked up) [representative growth hormone secretagogue]”, the “change in developed tension” value (1 μM) is “no changes in the developed tension”.
Regarding “recombinant human growth hormone: recombinant human growth hormone (Sumitomo Pharmaceutical)”, the “change in developed tension” value (0.2 IU/mL) is listed as “no changes in the developed tension”.

For the origin of these results see patent US6878689B2, “Preventives or remedies for heart failure” (Kaken Pharmaceutical Co., Ltd., priority 2000, dated 2005).
